From the supplement of paper PMC11061612

What was measured:
SIMA (Neuroblastoma) [1] = assay: Bliss excess, mean over the matrix (fraction); higher = more synergy
In short: (§1)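 Bliss excess equals the observed combination effect minus the expected value EA + EB − EA·EB, where EA and EB are the effects of each agent alone. Combination Emax is the second-highest inhibition within the matrix. Inhibition was scaled from CellTiter-Glo 2.0 luminescence, with 0 set by vehicle wells and 1 by blank wells, after 72 hours of two-drug dosing of cells plated in 1536-well plates.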

[2] = system: RPMI-6666 (Non-Cancerous); assay: combination Emax (second highest fraction inhibited in the dose matrix, 72 h); higher = more inhibition; extreme values may be limits of the assay
In short: as §1

Mewo (Melanoma) = assay: as above
In short: as §1

[3] = system: RKO (Colorectal Carcinoma); assay: as above
In short: as §1

HMV-II (Melanoma) = assay: as above
In short: as §1

[4] = system: NCI-H747 (Colorectal Carcinoma); assay: as above
In short: as §1

[5] = system: UMC-11 (Other Solid Carcinomas); assay: as above
In short: as §1

[6] = system: EN (Endometrial Carcinoma); assay: as above
In short: as §1

[7] = system: CAPAN-1 (Pancreatic Carcinoma); assay: as above
In short: as §1

SIMA (Neuroblastoma) [8] = assay: as above
In short: as §1

Cc1c2c(nn1C)CSCc1cc(n(C)n1)CSc1cc(c3ccccc3c1)OCCCc1c(C(=O)O)n(C)c3c-2c(Cl)ccc13 [AZD5991] + C[C@@H](Nc1cc(F)cc(F)c1)c1cc(C(=O)N(C)C)cc2c(=O)cc(N3CCOCC3)oc12 [AZD8186] (first compound max 1 µM, 7x7, partner max 3 µM)
Bliss excess (SIMA (Neuroblastoma) [1]): -0.0084
combination Emax [2]: 0.717
combination Emax (Mewo (Melanoma)): 0.314
combination Emax [3]: 0.277
combination Emax (HMV-II (Melanoma)): 0.192
combination Emax [4]: 0.517
combination Emax [5]: 0.32
combination Emax [6]: 0.558
combination Emax [7]: 0.172
combination Emax (SIMA (Neuroblastoma) [8]): 0.218

Cc1c2c(nn1C)CSCc1cc(n(C)n1)CSc1cc(c3ccccc3c1)OCCCc1c(C(=O)O)n(C)c3c-2c(Cl)ccc13 [AZD5991] + Cc1cc2ncnn2cc1Nc1ncc2c(n1)n(C1CCOCC1)c(=O)n2C [AZD7648] (first compound max 1 µM, 7x7, partner max 10 µM)
combination Emax [2]: 0.541
combination Emax (Mewo (Melanoma)): 0.283
combination Emax [3]: 0.364
combination Emax (HMV-II (Melanoma)): 0.273
combination Emax [4]: 0.392
combination Emax [5]: 0.625
combination Emax [6]: 0.563
combination Emax [7]: 0.267
combination Emax (SIMA (Neuroblastoma) [8]): 0.543

Cc1c2c(nn1C)CSCc1cc(n(C)n1)CSc1cc(c3ccccc3c1)OCCCc1c(C(=O)O)n(C)c3c-2c(Cl)ccc13 [AZD5991] + CCN(CCO)CCCOc1ccc2c(Nc3cc(CC(=O)Nc4cccc(F)c4)[nH]n3)ncnc2c1 [AZD2811] (first compound max 1 µM, 7x7, partner max 1 µM)
Bliss excess (SIMA (Neuroblastoma) [1]): -0.0271
combination Emax [2]: 0.797
combination Emax (Mewo (Melanoma)): 0.366
combination Emax [3]: 0.349
combination Emax (HMV-II (Melanoma)): 0.4
combination Emax [4]: 0.311
combination Emax [5]: 0.949
combination Emax [6]: 0.866
combination Emax [7]: 0.206
combination Emax (SIMA (Neuroblastoma) [8]): 0.768

Cc1c2c(nn1C)CSCc1cc(n(C)n1)CSc1cc(c3ccccc3c1)OCCCc1c(C(=O)O)n(C)c3c-2c(Cl)ccc13 [AZD5991] + C=CCn1c(=O)c2cnc(Nc3ccc(N4CCN(C)CC4)cc3)nc2n1-c1cccc(C(C)(C)O)n1 [AZD1775] (first compound max 1 µM, partner max 1 µM)
Bliss excess (SIMA (Neuroblastoma) [1]): -0.0713
combination Emax [2]: 0.93
combination Emax (Mewo (Melanoma)): 0.496
combination Emax [3]: 0.69
combination Emax (HMV-II (Melanoma)): 0.487
combination Emax [4]: 0.598
combination Emax [5]: 0.784
combination Emax [6]: 0.812
combination Emax [7]: 0.465
combination Emax (SIMA (Neuroblastoma) [8]): 0.973

Cc1c2c(nn1C)CSCc1cc(n(C)n1)CSc1cc(c3ccccc3c1)OCCCc1c(C(=O)O)n(C)c3c-2c(Cl)ccc13 [AZD5991] + C[C@@H]1COCCN1C2=NC(=NC(=C2)C3(CC3)[S@](=N)(=O)C)C4=C5C=CNC5=NC=C4 [AZD6738] (first compound max 1 µM, 7x7, partner max 10 µM)
Bliss excess (SIMA (Neuroblastoma) [1]): 0.024
combination Emax [2]: 0.889
combination Emax (Mewo (Melanoma)): 0.59
combination Emax [3]: 0.85
combination Emax (HMV-II (Melanoma)): 0.424
combination Emax [4]: 0.322
combination Emax [5]: 0.828
combination Emax [6]: 0.853
combination Emax [7]: 0.488
combination Emax (SIMA (Neuroblastoma) [8]): 0.98

CN(CCO)CC[C@H](CSc1ccccc1)Nc1ccc(S(=O)(=O)NC(=O)c2ccc(N3CCC([C@@H](O)c4ccccc4-c4ccc(Cl)cc4)CC3)cc2)cc1S(=O)(=O)C(F)(F)F [AZD4320] + C[C@@H]1COCCN1C2=NC(=NC(=C2)C3(CC3)[S@](=N)(=O)C)C4=C5C=CNC5=NC=C4 [AZD6738] (first compound max 1 µM, 7x7, partner max 10 µM)
Bliss excess (SIMA (Neuroblastoma) [1]): 0.0068
combination Emax [2]: 0.989
combination Emax (Mewo (Melanoma)): 0.647
combination Emax [3]: 0.85
combination Emax (HMV-II (Melanoma)): 0.331
combination Emax [4]: 0.333
combination Emax [5]: 0.806
combination Emax [6]: 0.69
combination Emax [7]: 0.724
combination Emax (SIMA (Neuroblastoma) [8]): 1

CN(C)CCCOc1ccc(-c2ccc3ncc4c(c3c2)n(C2CCOCC2)c(=O)n4C)cn1 [AZD0156] + O=C(c1cc(Cc2n[nH]c(=O)c3ccccc23)ccc1F)N1CCN(C(=O)C2CC2)CC1 [Olaparib] (first compound max 3 µM, partner max 3 µM)
Bliss excess (SIMA (Neuroblastoma) [1]): 0.0694
combination Emax [2]: 0.458
combination Emax (Mewo (Melanoma)): 0.322
combination Emax [3]: 0.284
combination Emax (HMV-II (Melanoma)): 0.383
combination Emax [4]: 0.339
combination Emax [5]: 0.246
combination Emax [6]: 0.227
combination Emax [7]: 0.295
combination Emax (SIMA (Neuroblastoma) [8]): 0.386

NC1(C(=O)N[C@@H](CCO)c2ccc(Cl)cc2)CCN(c2ncnc3[nH]ccc23)CC1 [Capivasertib] + COc1nnc2ccc(N3CCC(c4ccc(OCCN5CCN(C)C(=O)[C@H]5C)cc4)CC3)nn12 [AZD5153] (first compound max 10 µM, 7x7, partner max 1 µM)
combination Emax [2]: 0.815
combination Emax (Mewo (Melanoma)): 0.433
combination Emax [3]: 0.842
combination Emax (HMV-II (Melanoma)): 0.588
combination Emax [4]: 0.855
combination Emax [5]: 0.768
combination Emax [6]: 0.525
combination Emax [7]: 0.358

CC(=O)c1c(C)c2cnc(Nc3ccc(N4CCNCC4)cn3)nc2n(C2CCCC2)c1=O [Palbociclib] + Cc1c2c(nn1C)CSCc1cc(n(C)n1)CSc1cc(c3ccccc3c1)OCCCc1c(C(=O)O)n(C)c3c-2c(Cl)ccc13 [AZD5991] (first compound max 10 µM, 7x7, partner max 1 µM)
combination Emax [2]: 0.73
combination Emax (Mewo (Melanoma)): 0.569
combination Emax [3]: 0.472
combination Emax (HMV-II (Melanoma)): 0.625
combination Emax [4]: 0.608
combination Emax [5]: 0.638
combination Emax [6]: 0.566
combination Emax [7]: 0.245
